Measured values taken from US20250205235A1, “DOSE REGIMEN FOR VERICIGUAT” (ADVERIO PHARMA GMBH, priority 2023, published 2025).

Key:
[1] = some patients receiving vericiguat in clinical trials; cited from earlier work
[2] = tested on: participants with chronic heart failure with reduced ejection fraction; test: Phase 2b open-label clinical study of tolerability and safety of a 5 mg initiation dose of vericiguat (NCT06195930)
Method: A Phase 2b open-label clinical study to evaluate the tolerability and safety of an initiation dose of 5 mg of Vericiguat in participants with chronic heart failure with reduced ejection fraction.
The patients had symptomatic chronic heart failure with reduced ejection fraction (HFrEF). […] Participants underwent a screening visit to assess eligibility. Eligible participants waited a mandatory 2 weeks before returning for Visit 1 in order to be clinically and hemodynamically stable. At Visit 1 (V1), participants received vericiguat with directions to take a 5 mg tablet once daily for 2 weeks. Participants returned for Visit 2 (V2) after 2 weeks of treatment. There were unplanned healthcare visits for heart failure between Visits 1 and 2 at the discretion of the investigator.
Primary objective was to evaluate the tolerability of 5 mg as a starting dose of vericiguat. Endpoint: Treatment tolerability, defined as the completion of the two-week 5 mg dose without discontinuation of study intervention and without moderate to severe symptomatic hypotension between Visit 1 (V1) and Visit 2 (V2) Secondary objective 1 was to describe safety events of initiation of 5 mg dose. Endpoints: Any adverse event reported between V1 and V2. Absence of adverse events related to study intervention between V1 and V2.
Secondary objective 2 was to further evaluate the tolerability of 5 mg as a starting dose of vericiguat. Endpoint: Continuous intake of study intervention between V1 and V2 or restart of study intervention after any temporary interruption.
Dose changes in GDMT medications (RAS blockade, Beta-blocker, MRA, or SGLT2i) or oral diuretics for 2 weeks were discouraged, except when mandated by known side-effects for individual drug classes (e.g., hyperkalemia for MRA or angioedema for ACE-inhibitors/ARNI). Use of short and long-acting nitrates was permitted.
On Days 1-14, 5.0 mg Verquvo® vericiguat was administered orally once daily. The endpoint was tolerability based on need for treatment interruption between Days 1 and Day 14.

[3] = 106 started treatment, 5 mg once daily for 2 weeks

COC(=O)Nc1c(N)nc(-c2nn(Cc3ccccc3F)c3ncc(F)cc23)nc1N [Vericiguat, methyl {4,6-diamino-2-[5-fluoro-1-(2-fluorobenzyl)-1H-pyrazolo[3,4-b]pyridin-3-yl]pyrimidin-5-yl}carbamate]
Effect on systolic blood pressure compared with placebo [1]: reduction of systolic blood pressure | Difference between participants with and without recent worsening heart failure events in meeting primary and secondary endpoints ([2]; 5 mg dose, 2 weeks): no major differences | Primary endpoint: participants who completed the 2-week treatment period without moderate to severe symptomatic hypotension and without temporary treatment interruptions exceeding 1 day ([2]; 5 mg dose, 2 weeks): 93.4% | Secondary endpoint 1: participants who completed the 2-week treatment period without reported intervention-related adverse events ([2]; 5 mg dose, 2 weeks): 90.6% | Secondary endpoint 2: participants who completed treatment with continuous intervention intake or restarted study intervention after a temporary interruption ([2]; 5 mg dose, 2 weeks): 96.2% | patients who continued through the 14-day titration without a medical need for interruption ([2]; 5.0 mg orally once daily, Days 1-14): at least 90% | TREATMENT phase: Completed [2, 3]: 102 (96.2%) Number of participants (%) | TREATMENT phase: Did not complete [2, 3]: 4 (3.8%) Number of participants (%) | Tolerability of initiating treatment at 5 mg (in words) ([2]; HFrEF population with and without recent worsening heart failure events, on current GDMT): well tolerated | discontinuations for AE ([2]; OVERALL N = 106, SAF, 5 mg once daily, two weeks): 4 discontinuations | Any AE ([2]; SAF N = 106, 5 mg): 14 (13.2%) Number (%) of participants | Any AE leading to discontinuation of intervention ([2]; SAF N = 106, 5 mg): 4 (3.8%) Number (%) of participants | Any AE leading to dose modification of study intervention (delays, interruptions and reductions) ([2]; SAF N = 106, 5 mg): 6 (5.7%) Number (%) of participants | Any AE of special interest ([2]; SAF N = 106, 5 mg): 6 (5.7%) Number (%) of participants | Any AE related to procedures required by the protocol ([2]; SAF N = 106, 5 mg): 0 Number (%) of participants | Any SAE ([2]; SAF N = 106, 5 mg): 1 (0.9%) Number (%) of participants | Any SAE leading to discontinuation of intervention ([2]; SAF N = 106, 5 mg): 0 Number (%) of participants | Any SAE related to procedures required by the protocol ([2]; SAF N = 106, 5 mg): 0 Number (%) of participants | Any intervention-related AE ([2]; SAF N = 106, 5 mg): 10 (9.4%) Number (%) of participants | Any intervention-related SAE ([2]; SAF N = 106, 5 mg): 0 Number (%) of participants | Life-threatening SAE ([2]; SAF N = 106, 5 mg): 0 Number (%) of participants | Maximum intensity for any AE: MILD ([2]; SAF N = 106, 5 mg): 9 (8.5%) Number (%) of participants | Maximum intensity for any AE: MODERATE ([2]; SAF N = 106, 5 mg): 4 (3.8%) Number (%) of participants | Maximum intensity for any AE: SEVERE ([2]; SAF N = 106, 5 mg): 1 (0.9%) Number (%) of participants | Maximum intensity for intervention-related AEs: MILD ([2]; SAF N = 106, 5 mg): 8 (7.5%) Number (%) of participants | Maximum intensity for intervention-related AEs: MODERATE ([2]; SAF N = 106, 5 mg): 2 (1.9%) Number (%) of participants | Participants with total duration of interruption/delay of 0 days ([2]; SAF N = 106, 5 mg): 102 (96.2%) n (%) | Participants with total duration of interruption/delay of 1 day ([2]; SAF N = 106, 5 mg): 1 (0.9%) n (%) | Participants with total duration of interruption/delay of 2 days ([2]; SAF N = 106, 5 mg): 3 (2.8%) n (%) | SAE requiring hospitalization ([2]; SAF N = 106, 5 mg): 1 (0.9%) Number (%) of participants | SAE resulting in substantial disruption of normal life functions ([2]; SAF N = 106, 5 mg): 0 Number (%) of participants | SAE with fatal outcome ([2]; SAF N = 106, 5 mg): 0 Number (%) of participants | SAE: Congenital anomaly or birth defect ([2]; SAF N = 106, 5 mg): 0 Number (%) of participants | SAE: Other ([2]; SAF N = 106, 5 mg): 0 Number (%) of participants | Total Duration of Interruption/Delay, Max ([2]; SAF N = 106, 5 mg): 2 days | Total Duration of Interruption/Delay, Mean (SD) ([2]; SAF N = 106, 5 mg): 0.1 (0.3) ^ days | Total Duration of Interruption/Delay, Median ([2]; SAF N = 106, 5 mg): 0.0 days | Total Duration of Interruption/Delay, Min ([2]; SAF N = 106, 5 mg): 0 days | TREATMENT phase: Did not complete, primary reason ADVERSE EVENT ([2]; percentage of the participants who did not complete): 4 (100.0%) Number of participants (%)
